Measurements published in article PMC5120274, “Characterization of the Annonaceous acetogenin, annonacinone, a natural product inhibitor of plasminogen activator inhibitor-1” (Scientific Reports, 2016).
Where “and” joins values, the source holds several entries; their conditions need not be identical. Equal entries are not always repeated.

Legend:
PAI-1 [1] = biological target: T1, PAI-1 (Homo sapiens, UniProt P05121); assay: chromogenic screening assay: rate of tPA inhibition by PAI-1 (spectrozyme tPA hydrolysis); assay type: biochemical; conditions: mean ± SEM
T1 construct: purchased Stago BNL (Asnières sur Seine, FR)
Protocol: (§1) Compounds from our local collection BioCIS and from the Prestwick compound library (Prestwick chemicals, Illkirch, FR), a collection containing only FDA approved drugs (around 4000 compounds in total) were tested in a chromogenic assay measuring the inhibition rate of tPA-catalyzed spectrozyme® tPA hydrolysis in the presence of PAI-1. Compounds (20 μL, final concentration 50 μM, 1% DMSO) were dispensed in a 96 well half area Greiner plate. A mixture containing 20 μL of PAI-1 (final concentration 20 nM) and 80 μL of Spectrozyme-tPA (final concentration 400 μM) was then added, and the mixture pre-incubated for 45 minutes at 37 °C. At the end of pre-incubation time, 90 μL of the mixture were added to another 96 well half area plate containing 10 μL tPA (final concentration 10 nM). The kinetic was then measured at 405 nm for 45 min at 37 °C in an Envision microplate reader. Progress curves were fitted using the pseudo first order equation to determine the apparent rate constant k.

PAI-1 K122A = system: T2, PAI-1 K122A; assay: chromogenic screening assay with PAI-1 mutant K122A; assay type: biochemical; conditions: for Annonacinone activity 50 μM (% WT): ratio of kapp relative to WT (100%)
T2 construct: made in house
Protocol: as §1
Mutants were constructed as previously described. Based on computer modelling, the following mutants were prepared, T79A, T94A, D95A, R118A and K122A. The effect of annonacinone was measured at 50 μM for each mutant in our chromogenic screening assay. Progress curves were fitted using the pseudo first order equation to determine the apparent rate constant k. For each mutant, the ratio between the apparent rate constants with and without 50 μM annonacinone were calculated and then compared to that of PAI-1 WT to determine the % of annonacinone activity.

PAI-1 Y79A = system: T3, PAI-1 Y79A; assay: chromogenic screening assay with PAI-1 mutant Y79A; assay type: biochemical
T3 construct: made in house
Protocol: as §1
Mutants were constructed as previously described. […] The effect of annonacinone was measured at 50 μM for each mutant in our chromogenic screening assay. […] For each mutant, the ratio between the apparent rate constants with and without 50 μM annonacinone were calculated and then compared to that of PAI-1 WT to determine the % of annonacinone activity.

PAI-1 [2] = system: T4, PAI-1; assay: elastase mediated cleavage of PAI-1 (latency transition) on SDS-PAGE; assay type: biochemical, human; conditions: up to 50 μM
T4 construct: purchased Stago BNL (Asnières sur Seine, FR)
Protocol: Selective cleavage of active PAI-1 by elastase was observed on SDS-PAGE. PAI-1 (5 μL, 2 μM) was incubated with or without compounds (200 μM, 5 μL, 5% DMSO) for 15 min at 37 °C. Elastase (5 μL, 1.4 μM) was then added and further incubated for 15 min at 37 °C. Reaction was stopped by addition of 4X loading buffer containing SDS and BME followed by immediate boiling. Samples were then analyzed on SDS-PAGE followed by silver staining.

PAI-1/tPA complex = system: T5, PAI-1/tPA complex; assay: PAI-1/tPA complex formation on SDS-PAGE; assay type: biochemical, human; conditions: PAI-1 pre-incubated with annonacinone 30 min 37 °C
T5 construct: purchased Stago BNL (Asnières sur Seine, FR)
Protocol: PAI-1 (4 μL, 1 μM) was pre-incubated with 16 μL annonacinone (2% DMSO) for 30 min at 37 °C. Human tPA (4 μL, 0.5 μM) was then added to the mixture and incubated for 15 min at 37 °C. Reaction was stopped by addition of 4X SDS-PAGE loading buffer followed by immediate boiling. Samples were then analyzed on SDS-PAGE followed by silver staining.

human antithrombin = system: T6, human antithrombin; assay: continuous chromogenic assay: fondaparinux-catalyzed inhibition of factor Xa by antithrombin; assay type: biochemical; conditions: antithrombin pre-incubated with 50 μM annonacinone 20 min 37 °C; control buffer 7.9 × 10^−3
T6 construct: purchased LFB (Aclotin)
Protocol: 5 μM human α1-antitrypsin (Sigma) or human antithrombin (Aclotin®, LFB) were incubated with 50 μM annonacinone (or 0.5% DMSO in reaction buffer as control) for 20 min at 37 °C. The mixtures containing α1-antitrypsin were diluted in N-Methoxysuccinyl-Ala-Ala-Pro-Val p-nitroanilide (Sigma) containing solution and substrate hydrolysis kinetic was triggered by addition of neutrophil elastase (Sigma) to a final volume of 100 μL containing 13 nM α1-antitrypsin, 130 nM annonacinone, 82 μM chromogenic substrate and 5 nM neutrophil elastase. The mixtures containing antithrombin were diluted in fondaparinux (Arixtra®, GlaxoSmithKline) and CS-11(22)-FXa (Hyphen Biomed) containing solution and substrate hydrolysis kinetic was triggered by addition of factor Xa (Stago BNL) to a final volume of 100 μL containing 51 nM antithrombin, 510 nM annonacinone, 200 μM chromogenic substrate, 5 μM fondaparinux and 2 nM factor Xa.

PAI-1 [3] = biological target: T1, PAI-1; assay: thromboelastography (TEG) on pooled human plasma with tPA and PAI-1; assay type: biochemical
Protocol: 20 μL of CaCl2 (0.2 M), 10 μL of PAI-1 (final concentration 22 nM) and 10 μL of tested compounds were added in a TEG cup and pre-incubated for 20 min at room temperature. On the other hand, 1 mL of pooled citrated normal human plasma (pool of at least 10 healthy donors) was added to a vial containing 20 μL of Kaolin. 680 μl of the plasma/Kaolin mixture were then added to 20 μL of tPA (final concentration 9 nM). At the end of pre-incubation time, 320 μL of the plasma/tPA/kaolin mixture were transferred into the TEG cup and the thromboelastogram measured.

[4] = compound 50 μM, tPA 9 nM + PAI-1 22 nM

T1 sequence (P05121 24-402): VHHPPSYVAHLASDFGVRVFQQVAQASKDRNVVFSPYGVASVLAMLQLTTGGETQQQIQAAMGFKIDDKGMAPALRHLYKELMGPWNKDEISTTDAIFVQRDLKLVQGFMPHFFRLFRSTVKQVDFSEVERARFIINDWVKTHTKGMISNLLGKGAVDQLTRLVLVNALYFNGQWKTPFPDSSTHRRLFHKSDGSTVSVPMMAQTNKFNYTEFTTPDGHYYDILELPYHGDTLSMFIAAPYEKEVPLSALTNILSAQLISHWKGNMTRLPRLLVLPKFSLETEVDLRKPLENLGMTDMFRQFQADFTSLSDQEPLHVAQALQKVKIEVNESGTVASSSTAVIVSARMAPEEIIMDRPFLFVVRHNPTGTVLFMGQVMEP

## CCCCCCCCCCCC[C@@H](O)[C@H]1CC[C@H]([C@H](O)CCCCC(=O)CCCCC[C@@H](O)CC2=C[C@H](C)OC2=O)O1 [Annonacinone]
PAI-1 [1]; PAI-1 WT (Table 2 series), DMSO 1% 6,5 ± 0,6 × 10^−3, n = 4
  kapp Annonacinone 50 μM: 9,6 ± 1,0 × 10^−4 s^−1
PAI-1 [1]; chromogenic screening assay, without vitronectin, n = 3, read-out: IC50
  IC50: 9 ± 1 µM
PAI-1 [1]; compound 50 μM, 1% DMSO, PAI-1 20 nM, tPA 10 nM, DMSO 1% control 4.4 ± 0.3 × 10^-3, n = 3
  kapp 50 μM (apparent rate constant of tPA inhibition by PAI-1): 6.4 ± 0.7 × 10^-4 s^-1
PAI-1 K122A; DMSO 1% 1,9 ± 0,3 × 10^−3, n = 4
  kapp Annonacinone 50 μM: 3,5 ± 0,9 × 10^−4 s^−1
PAI-1 K122A
  Annonacinone activity 50 μM (% WT): 80 ± 13 % WT
PAI-1 K122A; listed as annonacinone
  Annonacinone activity 50 μM (% WT): no effect
PAI-1 Y79A; DMSO 1% 4,0 ± 1,0 × 10^−3, n = 4
  kapp Annonacinone 50 μM: 4,8 ± 0,9 × 10^−3 s^−1
PAI-1 Y79A; ratio of kapp without/with annonacinone relative to WT (100%)
  Annonacinone activity 50 μM (% WT): 12 ± 2 % WT
PAI-1 [2]
  effect on latency transition of PAI-1: No effects
PAI-1/tPA complex
  effect on PAI-1/tPA covalent complex formation: concentration-dependent inhibition
Human antithrombin
  kapp of factor Xa inhibition by fondaparinux-bound antithrombin: 0.0083 s⁻¹
PAI-1 [3]; LY60 of three independent experiments plotted against concentration, read-out: IC50 from LY60 values
  IC50: 2.3 ± 1 µM
PAI-1 [3]; TEG, human plasma
  effect on maximal amplitude (MA) and parameters of clot formation (R, K, angle): no significant effect
PAI-1 [3]; [4]
  Angle: 73.5 °
  K (clot formation time): 1.6 min
  MA (maximal amplitude): 21.4 mm
  R (clotting time): 6 min
PAI-1 [3]; compound 50 μM, tPA 9 nM + PAI-1 22 nM, tPA alone 94.3%, tPA + PAI-1 0%
  LY30 (clot lysis 30 minutes after maximal amplitude): 87.1%
PAI-1 [3]; compound 50 μM, tPA 9 nM + PAI-1 22 nM, tPA alone 96.8%, tPA + PAI-1 0%
  LY60 (clot lysis 60 minutes after maximal amplitude): 94% and 93.6%
